Consider two compounds from BindingDB's records for patent US12459916 (Bayer Pharma Aktiengesellschaft, 2025).

The assay has as its target T1, Interleukin-1 receptor-associated kinase 4 (UniProt A0A8C0TG75).
T1 sequence (A0A8C0TG75 whole entry): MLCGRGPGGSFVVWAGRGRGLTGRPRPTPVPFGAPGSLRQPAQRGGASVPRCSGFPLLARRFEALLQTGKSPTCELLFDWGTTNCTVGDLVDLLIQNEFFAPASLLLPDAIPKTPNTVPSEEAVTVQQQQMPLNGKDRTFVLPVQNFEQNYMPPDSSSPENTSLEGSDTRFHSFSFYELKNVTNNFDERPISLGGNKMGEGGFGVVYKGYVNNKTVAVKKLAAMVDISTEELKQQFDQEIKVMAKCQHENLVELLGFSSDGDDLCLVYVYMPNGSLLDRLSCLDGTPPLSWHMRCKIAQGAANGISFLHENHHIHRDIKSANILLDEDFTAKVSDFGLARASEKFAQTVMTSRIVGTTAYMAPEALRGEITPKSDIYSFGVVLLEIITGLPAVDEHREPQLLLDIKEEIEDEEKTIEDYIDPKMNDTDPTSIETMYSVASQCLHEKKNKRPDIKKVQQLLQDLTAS
The assay is described as follows: Canine IRAK4 Kinase Assay.

Protocol: 50 nl of the respective solution were pipetted into a black low-volume 384-well microtitre plate (Greiner Bio-One, Frickenhausen, Germany), 2 μl of a solution of Irak4 in assay buffer [50 mM HEPES pH 7.5, 5 mM MgCl2, 1.0 mM dithiothreitol, 30 μM activated sodium orthovanadate, 0.1% (w/v) of bovine gamma-globulin (BGG) 0.04% (v/v) nonidet-P40 (Sigma)] were added and the mixture was incubated for 15 min to allow prebinding of the substances to the enzyme prior to the kinase reaction. […] The concentration of the Irak4 was adjusted to the respective activity of the enzyme and set such that the assay was carried out in the linear range. Typical concentrations were in the order of about 0.1 nM.

By IC50 is commonly meant the point on the concentration scale where inhibition reaches its midpoint. The low end stands for inhibition by little substance, the high end for a need for much substance. Compound `CC(C)(O)CCn1cc2cc(NC(=O)c3cccc(C(F)F)n3)c(C(C)(C)O)cc2n1` [US12459916, Example 13] had an IC50 of 1.75 nM.

The compound `Cc1nc(C(=O)Nc2cc3cn(CCC(C)(C)O)nc3cc2C(C)(C)O)ccc1F` [US12459916, Example 19] registered an IC50 of 8.46 nM.
